{
  "source": "patent US20050208134A1",
  "about": "“Biocompatible polymeric beads and use thereof” (priority 2004, published 2005)",
  "origin": "cited, not measured here",
  "details": "humans, administered orally",
  "data": [
    {"smiles": "O=C(CC1NCCCC1O)Cn1cnc2cc(Br)c(Cl)cc2c1=O", "note": "(stereo not shown) [halofuginone]", "values": [
      {"measurement": "maximum tolerated dose with no adverse effects observed", "value": 1, "unit": "mg/day"}
    ]}
  ]
}
